Test results as given in US20050112573A1, “Method of detecting toxic substance” (priority 2001, published 2005).

Test system: yeast genes (level of expressed mRNA)
Test: DNA chip analysis of expressed mRNA of yeast genes after 2 h culture with a toxic chemical substance
Assay type: cell-based, Saccharomyces cerevisiae S288C
Method in brief: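 S. cerevisiae S288C in YPD at 25 °C was exposed at log phase for 2 h to a growth-inhibiting, non-lethal concentration of the chemical. Poly(A) mRNA was reverse-transcribed with Cy3- or Cy5-dUTP and hybridized to a whole-genome yeast DNA chip (65 °C, >12 h). Values are fluorescence ratios versus untreated cells.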

S=C([S-])NCCNC(=S)[S-].[Zn+2] [(11), zinc N,N′-ethylenebis(dithiocarbamate)]
1.4: level of expressed mRNA in the presence of chemical substance/in its absence (gene YAL044C) | The level of expressed mRNA in the presence of chemical substance/absence: YBR129C (gene YBR129C) | The level of expressed mRNA in the presence of chemical substance/absence: YBR281C (gene YBR281C) | The level of expressed mRNA in the presence of chemical substance/absence: YDR071C (gene YDR071C) | The level of expressed mRNA in the presence of chemical substance/absence: YGR038W (gene YGR038W)
3.9: level of expressed mRNA in the presence of chemical substance/in its absence (gene YFR015C)
3.2: The level of expressed mRNA in the presence of chemical substance/absence: YCL042W (gene YCL042W)
2.4: level of expressed mRNA in the presence of chemical substance/in its absence (gene YBR299W)
0.7: The level of expressed mRNA in the presence of chemical substance/absence: YAL017W (gene YAL017W) | The level of expressed mRNA in the presence of chemical substance/absence: YAR064W (gene YAR064W) | The level of expressed mRNA in the presence of chemical substance/absence: YBR012C (gene YBR012C) | level of expressed mRNA in the presence of chemical substance/in its absence (gene YBR029C) | The level of expressed mRNA in the presence of chemical substance/absence: YDL233W (gene YDL233W) | The level of expressed mRNA in the presence of chemical substance/absence: YDR090C (gene YDR090C) | The level of expressed mRNA in the presence of chemical substance/absence: YDR221W (gene YDR221W)
1.7: The level of expressed mRNA in the presence of chemical substance/absence: YAL014C (gene YAL014C) | The level of expressed mRNA in the presence of chemical substance/absence: YDR140W (gene YDR140W) | The level of expressed mRNA in the presence of chemical substance/absence: YDR366C (gene YDR366C) | The level of expressed mRNA in the presence of chemical substance/absence: YGR243W (gene YGR243W)
4.0: level of expressed mRNA in the presence of chemical substance/in its absence (gene YAL012W)
1.5: level of expressed mRNA in the presence of chemical substance/in its absence (gene YBR111C) | The level of expressed mRNA in the presence of chemical substance/absence: YBR255W (gene YBR255W) | level of expressed mRNA in the presence of chemical substance/in its absence (gene YCL009C) | The level of expressed mRNA in the presence of chemical substance/absence: YCL056C (gene YCL056C) | level of expressed mRNA in the presence of chemical substance/in its absence (gene YER069W) | The level of expressed mRNA in the presence of chemical substance/absence: YER182W (gene YER182W)
0.5: The level of expressed mRNA in the presence of chemical substance/absence: YGR156W (gene YGR156W)
0.4: The level of expressed mRNA in the presence of chemical substance/absence: YBR124W (gene YBR124W) | The level of expressed mRNA in the presence of chemical substance/absence: YDR278C (gene YDR278C) | level of expressed mRNA in the presence of chemical substance/in its absence (gene YDR380W)
0.3: The level of expressed mRNA in the presence of chemical substance/absence: YDR128W (gene YDR128W)
2.3: level of expressed mRNA in the presence of chemical substance/in its absence (gene YBL001C)
0.9: The level of expressed mRNA in the presence of chemical substance/absence: YBL100C (gene YBL100C) | level of expressed mRNA in the presence of chemical substance/in its absence (gene YBR023C) | The level of expressed mRNA in the presence of chemical substance/absence: YDR109C (gene YDR109C) | The level of expressed mRNA in the presence of chemical substance/absence: YDR425W (gene YDR425W) | The level of expressed mRNA in the presence of chemical substance/absence: YDR485C (gene YDR485C) | level of expressed mRNA in the presence of chemical substance/in its absence (gene YER026C) | The level of expressed mRNA in the presence of chemical substance/absence: YER092W (gene YER092W) | level of expressed mRNA in the presence of chemical substance/in its absence (gene YGL154C) | The level of expressed mRNA in the presence of chemical substance/absence: YGR139W (gene YGR139W)
0.8: level of expressed mRNA in the presence of chemical substance/in its absence (gene YBR068C) | The level of expressed mRNA in the presence of chemical substance/absence: YBR162C (gene YBR162C) | level of expressed mRNA in the presence of chemical substance/in its absence (gene YCR037C) | The level of expressed mRNA in the presence of chemical substance/absence: YDR281C (gene YDR281C) | The level of expressed mRNA in the presence of chemical substance/absence: YFR026C (gene YFR026C) | level of expressed mRNA in the presence of chemical substance/in its absence (gene YGL022W) | The level of expressed mRNA in the presence of chemical substance/absence: YGL088W (gene YGL088W) | The level of expressed mRNA in the presence of chemical substance/absence: YGL183C (gene YGL183C) | level of expressed mRNA in the presence of chemical substance/in its absence (gene YGL209W) | level of expressed mRNA in the presence of chemical substance/in its absence (gene YGR060W) | The level of expressed mRNA in the presence of chemical substance/absence: YGR211W (gene YGR211W)
0.6: The level of expressed mRNA in the presence of chemical substance/absence: YBL044W (gene YBL044W) | The level of expressed mRNA in the presence of chemical substance/absence: YBR063C (gene YBR063C) | The level of expressed mRNA in the presence of chemical substance/absence: YDR250C (gene YDR250C) | The level of expressed mRNA in the presence of chemical substance/absence: YDR271C (gene YDR271C) | The level of expressed mRNA in the presence of chemical substance/absence: YGL041C (gene YGL041C)
1.8: level of expressed mRNA in the presence of chemical substance/in its absence (gene YBR014C) | level of expressed mRNA in the presence of chemical substance/in its absence (gene YCL064C) | level of expressed mRNA in the presence of chemical substance/in its absence (gene YDR019C) | level of expressed mRNA in the presence of chemical substance/in its absence (gene YGL104C)
0.1: The level of expressed mRNA in the presence of chemical substance/absence: YAL018C (gene YAL018C) | The level of expressed mRNA in the presence of chemical substance/absence: YBR051W (gene YBR051W) | level of expressed mRNA in the presence of chemical substance/in its absence (gene YDR009W)
1.9: level of expressed mRNA in the presence of chemical substance/in its absence (gene YBR183W) | The level of expressed mRNA in the presence of chemical substance/absence: YDR338C (gene YDR338C)
3.7: level of expressed mRNA in the presence of chemical substance/in its absence (gene YEL011W)
2.0: level of expressed mRNA in the presence of chemical substance/in its absence (gene YBR035C) | The level of expressed mRNA in the presence of chemical substance/absence: YBR287W (gene YBR287W) | The level of expressed mRNA in the presence of chemical substance/absence: YDL089W (gene YDL089W)
1.6: level of expressed mRNA in the presence of chemical substance/in its absence (gene YDR410C) | The level of expressed mRNA in the presence of chemical substance/absence: YEL044W (gene YEL044W) | level of expressed mRNA in the presence of chemical substance/in its absence (gene YGL001C) | The level of expressed mRNA in the presence of chemical substance/absence: YGR237C (gene YGR237C) | The level of expressed mRNA in the presence of chemical substance/absence: YGR250C (gene YGR250C)
1.1: The level of expressed mRNA in the presence of chemical substance/absence: YAR047C (gene YAR047C) | level of expressed mRNA in the presence of chemical substance/in its absence (gene YAR071W) | level of expressed mRNA in the presence of chemical substance/in its absence (gene YBR050C) | level of expressed mRNA in the presence of chemical substance/in its absence (gene YBR145W) | The level of expressed mRNA in the presence of chemical substance/absence: YCL044C (gene YCL044C) | The level of expressed mRNA in the presence of chemical substance/absence: YCR007C (gene YCR007C) | The level of expressed mRNA in the presence of chemical substance/absence: YDL193W (gene YDL193W) | The level of expressed mRNA in the presence of chemical substance/absence: YDR078C (gene YDR078C) | level of expressed mRNA in the presence of chemical substance/in its absence (gene YGL039W) | level of expressed mRNA in the presence of chemical substance/in its absence (gene YGL134W)
2.1: level of expressed mRNA in the presence of chemical substance/in its absence (gene YDR487C)
1.3: level of expressed mRNA in the presence of chemical substance/in its absence (gene YAL054C) | level of expressed mRNA in the presence of chemical substance/in its absence (gene YBR222C) | level of expressed mRNA in the presence of chemical substance/in its absence (gene YCR098C) | The level of expressed mRNA in the presence of chemical substance/absence: YDR133C (gene YDR133C) | The level of expressed mRNA in the presence of chemical substance/absence: YDR316W (gene YDR316W) | level of expressed mRNA in the presence of chemical substance/in its absence (gene YDR502C) | level of expressed mRNA in the presence of chemical substance/in its absence (gene YEL020C) | The level of expressed mRNA in the presence of chemical substance/absence: YFR056C (gene YFR056C) | The level of expressed mRNA in the presence of chemical substance/absence: YGL057C (gene YGL057C) | The level of expressed mRNA in the presence of chemical substance/absence: YGL223C (gene YGL223C)
2.8: level of expressed mRNA in the presence of chemical substance/in its absence (gene YDL022W)
1.0: level of expressed mRNA in the presence of chemical substance/in its absence (gene YAL038W) | The level of expressed mRNA in the presence of chemical substance/absence: YAL049C (gene YAL049C) | The level of expressed mRNA in the presence of chemical substance/absence: YDR421W (gene YDR421W) | level of expressed mRNA in the presence of chemical substance/in its absence (gene YGL126W) | level of expressed mRNA in the presence of chemical substance/in its absence (gene YGL253W) | The level of expressed mRNA in the presence of chemical substance/absence: YGR198W (gene YGR198W) | The level of expressed mRNA in the presence of chemical substance/absence: YGR210C (gene YGR210C)
1.2: The level of expressed mRNA in the presence of chemical substance/absence: YBR013C (gene YBR013C) | The level of expressed mRNA in the presence of chemical substance/absence: YBR066C (gene YBR066C) | level of expressed mRNA in the presence of chemical substance/in its absence (gene YCR048W) | The level of expressed mRNA in the presence of chemical substance/absence: YDL173W (gene YDL173W) | The level of expressed mRNA in the presence of chemical substance/absence: YDR504C (gene YDR504C) | The level of expressed mRNA in the presence of chemical substance/absence: YGL045W (gene YGL045W) | The level of expressed mRNA in the presence of chemical substance/absence: YGR266W (gene YGR266W) | The level of expressed mRNA in the presence of chemical substance/absence: YGR277C (gene YGR277C)
2.6: The level of expressed mRNA in the presence of chemical substance/absence: YDL046W (gene YDL046W)
5.4: The level of expressed mRNA in the presence of chemical substance/absence: YFL042C (gene YFL042C)
